{"source": "patent US9908926B2", "about": "“Protein-based molecular temperature switch” (ARIZONA BOARD OF REGENTS ON BEHALF OF ARIZONA STATE …, priority 2014, dated 2018)", "key": {"[1]": {"target": "TRPM8 protein domain (Homo sapiens, UniProt Q7Z2W7)", "sequence (Q7Z2W7 whole entry, the tested form may be a part)": "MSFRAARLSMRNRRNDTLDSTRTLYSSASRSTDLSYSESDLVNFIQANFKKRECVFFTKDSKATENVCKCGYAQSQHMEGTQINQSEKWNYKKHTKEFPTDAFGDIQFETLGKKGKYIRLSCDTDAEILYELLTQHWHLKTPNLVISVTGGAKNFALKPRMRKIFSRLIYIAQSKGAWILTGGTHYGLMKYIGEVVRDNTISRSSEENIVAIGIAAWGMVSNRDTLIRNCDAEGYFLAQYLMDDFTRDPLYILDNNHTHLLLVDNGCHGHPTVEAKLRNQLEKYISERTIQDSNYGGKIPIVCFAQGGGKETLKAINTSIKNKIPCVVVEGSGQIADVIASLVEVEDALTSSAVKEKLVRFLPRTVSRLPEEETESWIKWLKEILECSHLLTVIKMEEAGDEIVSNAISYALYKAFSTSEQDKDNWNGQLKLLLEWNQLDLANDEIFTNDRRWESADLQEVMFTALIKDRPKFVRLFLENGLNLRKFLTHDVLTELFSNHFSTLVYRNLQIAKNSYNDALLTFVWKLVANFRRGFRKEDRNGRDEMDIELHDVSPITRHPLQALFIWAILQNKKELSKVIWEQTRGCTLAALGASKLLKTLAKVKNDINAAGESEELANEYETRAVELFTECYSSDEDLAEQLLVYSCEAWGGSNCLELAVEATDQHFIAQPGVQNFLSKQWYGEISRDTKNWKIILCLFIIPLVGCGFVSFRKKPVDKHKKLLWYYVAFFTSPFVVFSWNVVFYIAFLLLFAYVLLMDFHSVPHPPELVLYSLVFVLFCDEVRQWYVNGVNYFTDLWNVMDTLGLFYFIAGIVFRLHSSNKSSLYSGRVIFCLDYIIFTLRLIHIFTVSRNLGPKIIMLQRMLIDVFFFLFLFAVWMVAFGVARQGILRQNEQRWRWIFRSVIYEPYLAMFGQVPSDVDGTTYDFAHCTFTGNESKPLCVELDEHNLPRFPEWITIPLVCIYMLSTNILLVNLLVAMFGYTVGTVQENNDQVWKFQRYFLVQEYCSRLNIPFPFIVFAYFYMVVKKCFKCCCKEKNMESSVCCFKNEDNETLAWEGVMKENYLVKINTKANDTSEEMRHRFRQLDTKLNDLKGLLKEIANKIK", "experiment": "Activation of TRPM8 by menthol (shift of activation curve)", "format": "biochemical", "details": "FIG. 5", "description": "FIG. 3 illustrates the regulation of the ion channel via cold temperature change to an open channel within the protein membrane. The TRPM8 protein domain is weakly voltage-dependant and polymodal in that it can be activated with more than one agonist."}, "[2]": {"system": "human bladder cancer cell lines", "details": "cited from earlier work"}}, "data": [{"smiles": "CC1CCC(C(C)C)C(O)C1", "note": "(centres unmarked) [menthol]", "values": [{"measurement": "activation of the TRPM8 protein domain", "setting": "[1]", "result": "activates the TRPM8 protein domain by shifting the activation curve"}, {"measurement": "cell death", "setting": "[2]", "result": "induces cell death in human bladder cancer cell lines"}]}]}
